Measurements taken from patent US20220306695A1, “COMPSTATIN ANALOGUES AND THEIR MEDICAL USES” (priority 2019, published 2022).
Starred links: 1 amine or outer side, 2 acyl side, 3 side chain; linkers in the order of their positions; H or OH if unused. Positions of bridges follow the written chain, without caps; N, C: chain ends. Non-standard residues stand in square brackets, D forms with d. Residues, ends and D or L forms follow the SMILES beside them. Groups on a side chain read outwards from the residue. *: point of attachment. Trp(1-Me) = Cn1cc(C[C@H](N)C(=O)O)c2ccccc21; Abu(4-yl) = O=C([C@H](CC[*:3])N[*:1])[*:2]; C18 diacid = O=C(O)CCCCCCCCCCCCCCCCC(=O)*; γGlu = O=C(O)[C@H](CCC(=O)[*:2])N[*:1]; AEEA = NCCOCCOCC(=O)O; Sar = CNCC(=O)O

Each compound was assayed on classical complement pathway (assay: In vitro haemolysis assay (inhibition of classical complement pathway)). Conditions: Table 3; human serum, sensitized sheep red blood cells; read-out: IC50[nM], in vitro analysis of inhibition of hemolysis.
Format: cell-based, human
In short: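 Serially diluted compound (9 points) was preincubated 15 min at room temperature with diluted human serum, titrated per batch to give 70-90% maximal haemolysis, in Tris/casein buffer pH 7.4 with Mg2+/Ca2+. Antibody-sensitized sheep erythrocytes were then added for 30 min at 37° C, and the reaction was stopped with EDTA. Haemolysis was read at A405, with IC50 from 4PL fit.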

Structure (SMILES) | IC50
CC[C@H](C)[C@@H]1NC(=O)[C@@H](NC(=O)[C@H](Cc2ccc(O)cc2)NC(=O)[C@H](C)NC(=O)[C@H](CO)NC(=O)CNC(=O)[C@H](CCC(=O)O)NC(C)=O)CSSC[C@@H](C(=O)N(C)CC(=O)N[C@@H](CCC(=O)O)C(N)=O)NC(=O)[C@H](CCCNC(=N)N)NC(=O)[C@H](Cc2c[nH]cn2)NC(=O)[C@H](CCC(=O)O)NC(=O)CNC(=O)[C@H](Cc2c[nH]c3ccccc23)NC(=O)[C@H](CCC(=O)O)NC(=O)[C@H](CCC(N)=O)NC(=O)[C@H](Cc2cn(C)c3ccccc23)NC1=O [Compound 70] (Ac-EGSAYCI[Trp(1-Me)]QEWGEHRC[Sar]E-NH2; disulfide 6-16) | < 100 nM
CC[C@H](C)[C@@H]1NC(=O)[C@@H](NC(=O)CN(C)C(=O)[C@H](N)Cc2ccc(O)cc2)CSSC[C@@H](C(=O)N[C@H](C(=O)N[C@@H](CCC(=O)O)C(=O)N[C@@H](C)C(N)=O)[C@@H](C)O)NC(=O)[C@H](CCCNC(=N)N)NC(=O)[C@H](Cc2c[nH]cn2)NC(=O)[C@H](CCC(=O)O)NC(=O)CNC(=O)[C@H](Cc2c[nH]c3ccccc23)NC(=O)[C@H](CC(=O)O)NC(=O)[C@H](CCC(N)=O)NC(=O)[C@H](Cc2cn(C)c3ccccc23)NC1=O [Compound 91] (H-[dY][Sar]CI[Trp(1-Me)]QDWGEHRCTEA-NH2; disulfide 3-13) | < 100 nM
CC[C@H](C)[C@@H]1NC(=O)[C@@H](NC(=O)[C@H](Cc2ccccc2)NC(=O)[C@H](CCC(=O)O)NC(C)=O)CSSC[C@@H](C(=O)N[C@@H](CCC(=O)O)C(=O)N[C@@H](CO)C(N)=O)NC(=O)[C@H](CCCNC(=N)N)NC(=O)[C@H](Cc2c[nH]cn2)NC(=O)[C@H](CCC(=O)O)NC(=O)CNC(=O)[C@H](Cc2c[nH]c3ccccc23)NC(=O)[C@H](CC(=O)O)NC(=O)[C@H](CCC(N)=O)NC(=O)[C@H](Cc2cn(C)c3ccccc23)NC1=O [Compound 85] (Ac-EFCI[Trp(1-Me)]QDWGEHRCES-NH2; disulfide 3-13) | < 100 nM
CC[C@H](C)[C@@H]1NC(=O)[C@@H](NC(=O)[C@H](Cc2ccc(O)cc2)NC(=O)[C@H](CCC(=O)O)NC(=O)[C@H](CO)NC(C)=O)CSSC[C@@H](C(=O)N(C)CC(=O)N[C@@H](CCC(=O)O)C(=O)N[C@@H](C)C(N)=O)NC(=O)[C@H](CCCNC(=N)N)NC(=O)[C@H](Cc2c[nH]cn2)NC(=O)[C@H](CCC(=O)O)NC(=O)CNC(=O)[C@H](Cc2c[nH]c3ccccc23)NC(=O)[C@H](CC(=O)O)NC(=O)[C@H](CCC(N)=O)NC(=O)[C@H](Cc2cn(C)c3ccccc23)NC1=O [Compound 71] (Ac-SEYCI[Trp(1-Me)]QDWGEHRC[Sar]EA-NH2; disulfide 4-14) | < 100 nM
CC[C@H](C)[C@H](NC(=O)[C@H](C)NC(=O)[C@H](CO)NC(=O)[C@H](CO)NC(=O)[C@H](CCC(=O)O)NC(C)=O)C(=O)N[C@H]1CSSC[C@@H](C(=O)N[C@H](C(N)=O)[C@@H](C)O)NC(=O)[C@H](CCCNC(=N)N)NC(=O)[C@H](Cc2c[nH]cn2)NC(=O)[C@H](C)NC(=O)CNC(=O)[C@H](Cc2c[nH]c3ccccc23)NC(=O)[C@H](CC(=O)O)NC(=O)[C@H](CCC(N)=O)NC(=O)[C@H](Cc2c[nH]c3ccccc23)NC(=O)[C@H]([C@@H](C)CC)NC1=O [Compound 46] (Ac-ESSAICIWQDWGAHRCT-NH2; disulfide 6-16) | < 100 nM
CC[C@H](C)[C@@H]1NC(=O)[C@@H](NC(=O)[C@H](Cc2ccc(O)cc2)NC(=O)[C@H](CCC(=O)O)NC(=O)[C@H](CO)NC(C)=O)CSSC[C@@H](C(=O)N(C)CC(=O)N[C@@H](CCC(=O)O)C(=O)NCC(=O)N[C@@H](CCC(=O)O)C(=O)NCCOCCOCC(=O)NCCOCCOCC(=O)N[C@@H](CCCCNC(=O)CC[C@H](NC(=O)CNC(=O)CC[C@H](NC(=O)CCCCCCCCCCCCCCCCC(=O)O)C(=O)O)C(=O)O)C(N)=O)NC(=O)[C@H](CCCNC(=N)N)NC(=O)[C@H](Cc2c[nH]cn2)NC(=O)[C@H](CCC(=O)O)NC(=O)CNC(=O)[C@H](Cc2c[nH]c3ccccc23)NC(=O)[C@H](CCC(=O)O)NC(=O)[C@H](CCC(N)=O)NC(=O)[C@H](Cc2cn(C)c3ccccc23)NC1=O [Compound 125] (Ac-SEYCI[Trp(1-Me)]QEWGEHRC[Sar]EGE[AEEA][AEEA]K([γGlu-Gly-γGlu-C18 diacid])-NH2; disulfide 4-14) | < 500 nM
CC[C@H](C)[C@@H]1NC(=O)[C@@H](NC(=O)[C@H](Cc2ccc(O)cc2)NC(C)=O)CSSC[C@@H](C(=O)N[C@H](C(=O)N[C@@H](CCC(=O)O)C(=O)N[C@@H](CO)C(=O)NCC(=O)N[C@@H](C)C(N)=O)[C@@H](C)O)NC(=O)[C@H](CCCNC(=N)N)NC(=O)[C@H](Cc2c[nH]cn2)NC(=O)[C@H](CCC(=O)O)NC(=O)CNC(=O)[C@H](Cc2c[nH]c3ccccc23)NC(=O)[C@H](CC(=O)O)NC(=O)[C@H](CCC(N)=O)NC(=O)[C@H](Cc2cn(C)c3ccccc23)NC1=O [Compound 69] (Ac-YCI[Trp(1-Me)]QDWGEHRCTESGA-NH2; disulfide 2-12) | < 100 nM
CC[C@H](C)[C@@H]1NC(=O)[C@@H](NC(=O)[C@H](Cc2ccc(O)cc2)NC(=O)[C@H](C)NC(=O)[C@H](CO)NC(=O)[C@H](CO)NC(=O)[C@H](CCC(=O)O)NC(C)=O)CSSC[C@@H](C(=O)N[C@H](C(N)=O)[C@@H](C)O)NC(=O)[C@H](CCCNC(=N)N)NC(=O)[C@H](Cc2c[nH]cn2)NC(=O)[C@H](CCC(=O)O)NC(=O)CNC(=O)[C@H](Cc2c[nH]c3ccccc23)NC(=O)[C@H](CC(=O)O)NC(=O)[C@H](CCC(N)=O)NC(=O)[C@H](Cc2c[nH]c3ccccc23)NC1=O [Compound 10] (Ac-ESSAYCIWQDWGEHRCT-NH2; disulfide 6-16) | < 100 nM
CC[C@H](C)[C@@H]1NC(=O)[C@@H](NC(=O)[C@H](Cc2ccccc2)NC(=O)[C@H](CCC(=O)O)NC(=O)CNC(C)=O)CSCC[C@@H](C(=O)N(C)CC(=O)N[C@@H](CCC(=O)O)C(=O)NCC(=O)N[C@@H](CCC(=O)O)C(=O)NCCOCCOCC(=O)N[C@@H](CCC(=O)O)C(=O)N[C@@H](CO)C(=O)N[C@@H](CCCCNC(=O)CC[C@H](NC(=O)CNC(=O)CC[C@H](NC(=O)CCCCCCCCCCCCCCCCC(=O)O)C(=O)O)C(=O)O)C(N)=O)NC(=O)[C@H](CCCNC(=N)N)NC(=O)[C@H](Cc2c[nH]cn2)NC(=O)[C@H](CCC(=O)O)NC(=O)CNC(=O)[C@H](Cc2c[nH]c3ccccc23)NC(=O)[C@H](CCC(=O)O)NC(=O)[C@H](CCC(N)=O)NC(=O)[C@H](Cc2cn(C)c3ccccc23)NC1=O [Compound 155, Ac-GEFA(1)I[1-Me-Trp]QEWGEHRhC(1)[Sar]EGE[Peg3]ES-K([17-carboxy-heptadecanoyl][γGlu]G[γGlu])-NH2] (Ac-GEFCI[Trp(1-Me)]QEWGEHR[Abu(4-yl)][Sar]EGE[AEEA]ESK([γGlu-Gly-γGlu-C18 diacid])-NH2; thioether 4-14) | < 100 nM
CC[C@H](C)[C@H](NC(C)=O)C(=O)N[C@H]1CSSC[C@@H](C(=O)N[C@H](C(N)=O)[C@@H](C)O)NC(=O)[C@H](CO)NC(=O)[C@H](Cc2c[nH]cn2)NC(=O)[C@H](CCC(=O)O)NC(=O)CNC(=O)[C@H](Cc2c[nH]c3ccccc23)NC(=O)[C@H](CC(=O)O)NC(=O)[C@H](CCC(N)=O)NC(=O)[C@H](Cc2c[nH]c3ccccc23)NC(=O)[C@H]([C@@H](C)CC)NC1=O [Compound 20] (Ac-ICIWQDWGEHSCT-NH2; disulfide 2-12) | < 100 nM
CC[C@H](C)[C@H](NC(C)=O)C(=O)N[C@H]1CSSC[C@@H](C(=O)N[C@H](C(=O)N[C@@H](CCC(=O)O)C(=O)NCC(=O)N[C@@H](CCCCNC(=O)COCCOCCNC(=O)COCCOCCNC(=O)CC[C@H](NC(=O)CCCCCCCCCCCCCCCCC(=O)O)C(=O)O)C(N)=O)[C@@H](C)O)NC(=O)[C@H](CCCNC(=N)N)NC(=O)[C@H](Cc2c[nH]cn2)NC(=O)[C@H](CCC(=O)O)NC(=O)CNC(=O)[C@H](Cc2c[nH]c3ccccc23)NC(=O)[C@H](CC(=O)O)NC(=O)[C@H](CCC(N)=O)NC(=O)[C@H](Cc2c[nH]c3ccccc23)NC(=O)[C@H]([C@@H](C)CC)NC1=O [Compound 96] (Ac-ICIWQDWGEHRCTEGK([AEEA-AEEA-γGlu-C18 diacid])-NH2; disulfide 2-12) | < 1000 nM
CC[C@H](C)[C@H](NC(=O)[C@H](C)NC(=O)[C@H](CO)NC(=O)CNC(=O)[C@H](CCC(=O)O)NC(C)=O)C(=O)N[C@H]1CSSC[C@@H](C(=O)N[C@H](C(N)=O)[C@@H](C)O)NC(=O)[C@H](CCCNC(=N)N)NC(=O)[C@H](Cc2c[nH]cn2)NC(=O)[C@H](CCC(=O)O)NC(=O)CNC(=O)[C@H](Cc2c[nH]c3ccccc23)NC(=O)[C@H](CC(=O)O)NC(=O)[C@H](CCC(N)=O)NC(=O)[C@H](Cc2c[nH]c3ccccc23)NC(=O)[C@H]([C@@H](C)CC)NC1=O [Compound 29] (Ac-EGSAICIWQDWGEHRCT-NH2; disulfide 6-16) | < 100 nM
CC[C@H](C)[C@H](NC(C)=O)C(=O)N[C@H]1CSSC[C@@H](C(=O)N[C@@H](CCC(=O)O)C(N)=O)NC(=O)[C@H](CCCNC(=N)N)NC(=O)[C@H](Cc2c[nH]cn2)NC(=O)[C@H](C)NC(=O)CNC(=O)[C@H](Cc2c[nH]c3ccccc23)NC(=O)[C@H](CC(=O)O)NC(=O)[C@H](CCC(N)=O)NC(=O)[C@H](Cc2c[nH]c3ccccc23)NC(=O)[C@H]([C@@H](C)CC)NC1=O [Compound 12] (Ac-ICIWQDWGAHRCE-NH2; disulfide 2-12) | < 100 nM

Same assay, conditions: Table 4; valine 3 versus isoleucine 3 pairs; read-out: CP hemolysis IC50

Structure (SMILES) | IC50
CC[C@H](C)[C@H](NC(=O)[C@H](C)NC(=O)[C@H](CO)NC(=O)[C@H](CO)NC(=O)[C@H](CCC(=O)O)NC(C)=O)C(=O)N[C@H]1CSSC[C@@H](C(=O)N[C@H](C(N)=O)[C@@H](C)O)NC(=O)[C@H](CCCNC(=N)N)NC(=O)[C@H](Cc2c[nH]cn2)NC(=O)[C@H](CCC(=O)O)NC(=O)CNC(=O)[C@H](Cc2c[nH]c3ccccc23)NC(=O)[C@H](CC(=O)O)NC(=O)[C@H](CCC(N)=O)NC(=O)[C@H](Cc2c[nH]c3ccccc23)NC(=O)[C@H](C(C)C)NC1=O [C, reference compound] (Ac-ESSAICVWQDWGEHRCT-NH2; disulfide 6-16) | 300 nM
CC[C@H](C)[C@H](NC(C)=O)C(=O)N[C@H]1CSSC[C@@H](C(=O)N[C@H](C(N)=O)[C@@H](C)O)NC(=O)[C@H](CO)NC(=O)[C@H](Cc2c[nH]cn2)NC(=O)[C@H](CCC(=O)O)NC(=O)CNC(=O)[C@H](Cc2c[nH]c3ccccc23)NC(=O)[C@H](CC(=O)O)NC(=O)[C@H](CCC(N)=O)NC(=O)[C@H](Cc2c[nH]c3ccccc23)NC(=O)[C@H]([C@@H](C)CC)NC1=O [Compound 20] (Ac-ICIWQDWGEHSCT-NH2; disulfide 2-12) | 59 nM
